The values below come from US20140179681A1, “METHODS AND COMPOSITIONS OF TARGETED DRUG DEVELOPMENT” (priority 2010, published 2014).

Where two headings read alike, the source gives them in different places.

This test has as its system epithelial carcinoma A431 cell line. As to the kind of experiment: MTT Cell Proliferation Assay, A431 cells. The note with it: for IC50: Homo sapiens, A-431, Table 11. The test is classed as cell-based. Summed up:
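Viability was measured by mitochondrial MTT reduction after cells were exposed to compound for 3 days in reduced-serum medium. Inhibition was calculated per plate against 0.5% DMSO controls.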

`CCc1cc2c(CN3CCN(Cc4ccc5c(c4)OCO5)CC3)cc(=O)oc2cc1O` [AD4-1734]: the IC50 by setting is: (first of x/y(ratio): A431, unit inferred, read-out: MTT Follow-up (first value)) 22.1 µM; (first of x/y(ratio): A431, unit not printed (doses in μM), read-out: MTT Screen (first value)) 22.8 µM. For the same molecule, the “activity in A431” value is reported as “less than 100%” (standard at 23.5 μM final concentration) and 100% (standard at 31.125 μM final concentration).
Take `Cc1cc(C)cc(NS(=O)(=O)c2ccc(NC(=S)Nc3ccccc3)cc2)c1` [AD4-11091]: for the setting “Table 10, first of x/y(ratio): A431, three day treatment, unit not printed (doses in μM)”, the “MTT assay (first value)” value was “non-convergent”.
